Data from ChEMBL document CHEMBL1156829 (Proc Natl Acad Sci U S A, 2008).

What was measured:
Plasmodium falciparum [1] = assay: NOVARTIS: Inhibition of Plasmodium falciparum W2 (drug-resistant) proliferation in erythrocyte-based infection assay; assay type: functional, organism-based; settings: Plasmodium falciparum, W2; read-out: EC50
Plasmodium falciparum [2] = assay: NOVARTIS: Inhibition of Plasmodium falciparum 3D7 (drug-susceptible) proliferation in erythrocyte-based infection assay; assay type: functional, organism-based
[3] = NOVARTIS: Cytotoxicity against human hepatocellular carcinoma cell line (Huh7); assay type: toxicity, cell-based, Huh-7; settings: Huh7 cells (hepatocellular carcinoma cell line)

Row | SMILES | EC50 (Plasmodium falciparum [1]) | EC50 (Plasmodium falciparum [2]; Plasmodium falciparum, 3D7) | CC50 [3] | EC50 (Plasmodium falciparum [2])
1 | CCOC(=O)c1ccc2c(c1)[C@@H]1C=CC[C@@H]1[C@H](c1ccc(OC)c([N+](=O)[O-])c1)N2 | 0.376 µM | 0.39 µM | > 100 µM | –
2 | Cc1nnc(Nc2ccc(F)cc2)c2ccccc12 | > 0.0689 µM | > 1.25 µM | > 10 µM | –
3 | CC(NCCC(c1ccccc1)c1ccccc1O)c1ccccc1 (configuration not stated) | 0.277 µM | 1.12 µM | > 10 µM | –
4 | CC(=NNC(=N)N)c1ccc(C)cc1 | 0.25 µM | 2.04 µM | 19.3 µM | –
5 | CCN(C(C)=O)C1=C(N2CCOCC2)C(=O)c2ccccc2C1=O | 0.185 µM | 0.168 µM | 4.09 µM | –
6 | C=CCN1CCN(C(c2ccccc2F)c2nnnn2Cc2ccco2)CC1 (configuration not stated) | 2.91 µM | > 12.5 µM | > 77 µM | –
7 | CCCCCCCC[n+]1c(C)n(C)c2cc(Cl)c(Cl)cc21 | 0.356 µM | 0.527 µM | 40.5 µM | –
8 | CCCOC(=O)C1=C(C)NC2=C(C(=O)CC(c3ccc(OC)cc3)C2)C1c1ccccc1Cl (configuration not stated) | 0.0221 µM | 0.0272 µM | > 100 µM | –
9 | CCOC(=O)C1=C(C)NC2=C(C(=O)CC(c3ccc(OC)c(OC)c3)C2)C1c1ccc([N+](=O)[O-])cc1 (configuration not stated) | 0.064 µM | 0.18 µM | > 100 µM | –
10 | COc1ccc(-c2c[n+](Cc3ccccc3Cl)c3n2CCC3)cc1 | 0.532 µM | 0.578 µM | 52.5 µM | –
11 | CCOC(=O)c1c(NC(=O)c2ccc([N+](=O)[O-])cc2[N+](=O)[O-])sc2c1CCCC2 | 1.04 µM | > 12.5 µM | > 100 µM | –
12 | c1ccc(CCNc2cccc3ccccc23)cc1 | < 0.00752 µM | 0.128 µM | > 10 µM | –
13 | Cc1ccc(NC(C)C(=O)Nc2ccc(C#N)cc2)cc1S(=O)(=O)N1CCCCC1 (configuration not stated) | 0.446 µM | 0.406 µM | 59.5 µM | –
14 | COc1ccc(Cl)cc1NC(=S)NNC(=O)c1cccnc1 | 0.664 µM | 0.536 µM | > 100 µM | –
15 | CCc1ccc2[nH]c(=O)c(CN(CCN(CC)CC)C(=S)NCCCN(CC)CC)cc2c1 | 1.39 µM | 2.38 µM | 45.6 µM | –
16 | CCOc1ccc(C(=O)CN2C(=O)c3ccccc3OC(C(C)C)C2=O)cc1[N+](=O)[O-] (configuration not stated) | 1.92 µM | > 12.5 µM | > 100 µM | –
17 | CC(c1nc2ccccc2c(=O)n1-c1ccccc1Cl)N(Cc1ccccc1)C(=O)Nc1cccc(Br)c1 (configuration not stated) | > 0.159 µM | > 1.25 µM | > 10 µM | –

Row | SMILES | EC50 (Plasmodium falciparum [1]) | EC50 (Plasmodium falciparum [2]; Plasmodium falciparum, 3D7) | CC50 [3] | EC50 (Plasmodium falciparum [2])
18 | COC(=O)C1=C(C)NC2=C(C(=O)CC(c3ccccc3)C2)C1c1ccc(Cl)cc1 (configuration not stated) | 0.333 µM | 1.22 µM | > 100 µM | –
19 | CCOc1nc2c(c(=O)n(C)c(=O)n2C)n1Cc1cccc(Br)c1 | > 0.885 µM | > 1.61 µM | > 10 µM | –
20 | Cn1cc(/C=C/c2cc[n+](C)cc2)c2ccccc21 | 0.315 µM | – | > 8.99 µM | 0.0928 µM
21 | c1ccc(CNc2nc(-c3ccccn3)nnc2-c2ccccc2)cc1 | 0.326 µM | 0.182 µM | 0.63 µM | –
22 | CC1=NN(c2ccc(C(=O)O)cc2)C(=O)/C1=C\c1ccc([N+](=O)[O-])o1 | > 0.839 µM | > 1.25 µM | > 10 µM | –
23 | O=C(Cc1ccsc1)N1CCOc2c(cc(-c3csc4ccccc34)cc2OCCc2ccccn2)C1 | 0.223 µM | 0.379 µM | > 100 µM | –
24 | CCN(CC)c1ccc(C=C(C#N)c2nc3ccccc3[nH]2)o1 | > 2.67 µM | 3.35 µM | 46.2 µM | –
25 | O=C(Oc1ccc(N2C(=O)c3ccc([N+](=O)[O-])cc3C2=O)cc1)c1ccco1 | > 10 µM | > 10 µM | > 100 µM | –
26 | CCCCCCn1c2c(c(=N)c3c1CCC3)CCCC2 | 0.336 µM | 0.364 µM | > 10 µM | –
27 | CC1CCN(c2nncc3ccccc23)CC1 | > 6.05 µM | > 12.5 µM | > 100 µM | –
28 | CCNc1nc(NC(C)(C)C)nc(N2CCCC2)n1 | 0.802 µM | 1.45 µM | > 100 µM | –
29 | CCOC(=O)c1sc(NC(=O)CSc2nnc(CNC(=O)COc3ccccc3)n2C)c(C(=O)OCC)c1C | > 1.25 µM | > 1.08 µM | > 10 µM | –
30 | CC(=O)C1C(=O)c2c(cccc2[N+](=O)[O-])C1=Nc1ccccc1C (configuration not stated) | 0.777 µM | 0.643 µM | 51.7 µM | –
31 | CCOc1ccc(NC(=O)C(C)Sc2nc3ccccc3[nH]2)cc1 (configuration not stated) | > 7.6 µM | > 12.5 µM | > 100 µM | –
32 | CCOC(=O)CCS(=O)(=O)c1ccc(Br)cc1 | > 1.46 µM | 0.237 µM | > 10 µM | –
33 | CCCOC(=O)C1=C(C)NC2=C(C(=O)CC(c3ccc(OC)c(OC)c3)C2)C1c1ccc(Cl)cc1Cl (configuration not stated) | 0.00436 µM | 0.00762 µM | > 100 µM | –
34 | CCOC(=O)c1sc(NC(=O)C(C)Sc2nnc(CNC(=O)c3ccc(OC)cc3)n2-c2ccccc2OC)c(C(=O)OCC)c1C (configuration not stated) | 0.439 µM | > 1.25 µM | > 10 µM | –
